Read-outs that look alike come from different tables or passages of the source. Marks after values point to notes of the source that are not given here.

These results are taken from PMC8397956 (Molecules, 2021).

The subject of assay [1] is E. coli XL1 Blue. The experiment in a line: Growth inhibition of E. coli XL1 Blue, paper disc diffusion on LB solid medium. The conditions noted are these: for Growth Inhibition Zone: 24 h at 37 °C; for colonies of tolerant bacteria in the inhibition zone / bacterial growth inhibition (in words): paper disc diffusion; for bacterial growth inhibition (in words): Figure 1A. Format: cell-based, Escherichia coli. The protocol:
The antimicrobial activity of α,α-difluorophosphonate 9a and 10 was determined using the paper disc diffusion method and was compared with the antimicrobial activity of the non-fluorinated phosphonate and phosphate compounds 3, 4 et 6. The diameters of the inhibition zone are given with respect to the amount of inhibitor deposited on the disc (Table 2).
(§1) The antimicrobial activity of hydroxamic acids 9b, 10a and 10b against E. coli XL1 Blue and fosmidomycin-resistant strain E. coli FosR [7], was determined using the paper disc diffusion method. LB agar plates (9 cm diameter) were inoculated with a suspension of bacteria (200 μL, mid-exponential phase). […] Growth inhibition was examined after 24 h incubation at 37 °C.
On the technique in general: A growth-free zone around the sample is the usual read-out of agar diffusion tests.

For assay [2], the system named is E. coli XL1 Blue. The conditions noted are these: cited from earlier work.
Assay [3] addresses T1, E. coli H6-DXR (Escherichia coli, UniProt P45568).
T1 construct: His6 (H6)
The experiment in a line: Inhibition of E. coli His-tagged DXR (photometric NADPH assay). Format: biochemical. The method, then: The inhibition potency of α,α-difluorophosphonohydroxamic acid derivatives was characterized by their IC50 value that was determined as previously described. […] Residual activity was measured after initiating the enzymatic reaction by addition of DXP.
The assays were performed at 37 °C in a 50 mM Tris/HCl buffer pH 7.5 containing 3 mM MgCl2 and 2 mM DTT. The concentrations of DXP and NADPH were 480 µM and 160 µM respectively. The decrease of absorbance at 340 nm due to NADPH oxidation was monitored to determine the initial rates. The retained values were the average of at least two measurements. The relative average deviation must be lower than 4%.
Inhibitor concentrations in the stock solutions were verified by spectrophotometric phosphorus determination. The study compounds 9b and 10a, 10b were tested against E. coli DXR using a photometric assay that was described earlier. H-DXR was pre-incubated during 2 min in the presence of the inhibitors 9b, 10a and 10b at different concentrations and NADPH. DXP was then added to measure the residual activity. The inhibitory potential of the tested compounds was quantified by determining the IC50 values. They were obtained by plotting the percentage of residual activity versus the Log of inhibitor concentration.

Assay [4] concerns the target T1, E. coli H6-DXR. The conditions noted are these: cited from earlier work.
Assay [5] relates to Plasmodium falciparum (K1 strain). Also on record: method as in PMID 20568776. The conditions noted are these: racemic mixtures, intraerythrocytic forms, ref [14]; cited from earlier work.
Assay [6] relates to fosmidomycin-resistant strain E. coli FosR. Nature of the assay: Growth inhibition of fosmidomycin-resistant E. coli FosR, paper disc diffusion. Format: cell-based, Escherichia coli. To be noted: GlpT/UhpT transporters inoperative, Figure 1B. The protocol: as §1

T1 sequence (P45568 whole entry): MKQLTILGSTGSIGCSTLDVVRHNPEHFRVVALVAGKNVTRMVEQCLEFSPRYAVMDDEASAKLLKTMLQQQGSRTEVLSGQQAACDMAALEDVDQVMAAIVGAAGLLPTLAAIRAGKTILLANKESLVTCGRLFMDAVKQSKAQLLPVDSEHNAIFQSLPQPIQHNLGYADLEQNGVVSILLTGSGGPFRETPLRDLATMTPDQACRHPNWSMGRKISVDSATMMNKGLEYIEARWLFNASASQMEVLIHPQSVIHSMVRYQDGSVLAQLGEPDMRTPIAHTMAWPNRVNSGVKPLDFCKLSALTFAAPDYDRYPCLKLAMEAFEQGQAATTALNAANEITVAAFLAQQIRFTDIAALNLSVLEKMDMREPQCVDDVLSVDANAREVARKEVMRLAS

Turning to `O=CN(O)CCCP(=O)(O)O` [Compound 3a, fosmidomycin], the “Growth Inhibition Zone” value in the assay on E. coli XL1 Blue [1] (2 nmoles/disc) is listed as 35 mm. Besides, in the assay with E. coli XL1 Blue [1], the “colonies of tolerant bacteria in the inhibition zone” value (from here on “colonies … in the inhibition zone”) was “colonies of tolerant bacteria”.

In the case of `CC(=O)N(O)CCCP(=O)(O)O` [Compound 3b, FR-900098], the “Growth Inhibition Zone” value in the assay with E. coli XL1 Blue [2] (2 nmoles/disc, ref [9]) was 32 * mm. At E. coli H6-DXR [3], this molecule had a half-maximal inhibitory concentration (IC50) of 4 nM.

As to `O=C(CCCP(=O)(O)O)NO` [Compound 4a], at E. coli H6-DXR [4] (ref [8]), the half-maximal inhibitory concentration (IC50) is 180 nM. Moreover, the “Growth Inhibition Zone” value in the assay with E. coli XL1 Blue [2] (400 nmoles/disc, ref [8]) is on record as 12 ** mm.

For the molecule `CN(O)C(=O)CCCP(=O)(O)O` [Compound 4b], the “Growth Inhibition Zone” value in the assay with E. coli XL1 Blue [2] (80 nmoles/disc, ref [8]) was 30 ** mm.

On to `O=CN(O)CCOP(=O)(O)O` [Compound 5a, fosfoxacin], for which, at E. coli H6-DXR [4] (ref [9]), the IC50 was 342 nM.

`CC(=O)N(O)CCOP(=O)(O)O` [Compound 5b]: at E. coli H6-DXR [4] (ref [9]), the IC50 is 77 nM.

On to `O=C(CCOP(=O)(O)O)NO` [Compound 6a], for which, at E. coli H6-DXR [4] (ref [9]), the IC50 was 2600 nM. Moreover, in the assay on E. coli XL1 Blue [2] (400 nmoles/disc, ref [9]), the “Growth Inhibition Zone” value is reported as <10 * mm.

As to `CN(O)C(=O)CCOP(=O)(O)O` [Compound 6b], the IC50 on E. coli H6-DXR [4] (ref [9]) is 46 nM. For the same molecule, the “Growth Inhibition Zone” value in the assay on E. coli XL1 Blue [2] (160 nmoles/disc, ref [9]) was 20 * mm.

As for `CC(=O)N(O)CCC(F)P(=O)(O)O` (stereo not drawn) [Compound 7], the “activity compared with parent compounds fosmidomycin and 4b” value in assay [5] was “more active”.

In the case of `CN(O)C(=O)CCC(F)P(=O)(O)O` (stereo not drawn) [Compound 8], the “activity compared with parent compounds fosmidomycin and 4b” value in assay [5] is reported as “more active”.

As to `CC(=O)N(O)CCC(F)(F)P(=O)(O)O` [Compound 9b, (1,1-Difluoro-3-(N-hydroxyacetamido)propyl)phosphonic acid], the “Growth Inhibition Zone” value with E. coli XL1 Blue [1] (2 nmoles/disc) was 15 mm. In addition, in the assay with E. coli XL1 Blue [1], the “colonies … in the inhibition zone” value was “did not appear” and the “bacterial growth inhibition (in words)” value is given as “quite effective to inhibit bacterial growth”. In assay [6], the “bacterial growth inhibition (in words)” value is “No growth inhibition”. Moreover, the 50% inhibitory concentration (IC50) against E. coli H6-DXR [3] was found to be 9 nM.

Take `O=C(CCC(F)(F)P(=O)(O)O)NO` [Compound 10a, (1,1-Difluoro-4-(hydroxyamino)-4-oxobutyl)phosphonic acid]: the “bacterial growth inhibition (in words)” value with E. coli XL1 Blue [1] is on record as “no inhibition was observed”. The IC50 at E. coli H6-DXR [3] stood at 4600 nM. In addition, the “fold less efficient than N-methylated analogue 10b” value at E. coli H6-DXR [3] (ratio of IC50 values on E. coli DXR) came to 280.

On to `CN(O)C(=O)CCC(F)(F)P(=O)(O)O` [Compound 10b, (1,1-Difluoro-4-(hydroxy(methyl)amino)-4-oxobutyl)phosphonic acid], for which the “Growth Inhibition Zone” value in the assay on E. coli XL1 Blue [1] (1.5 nmoles/disc) is listed as 20 mm. In the assay on E. coli XL1 Blue [1], the “colonies … in the inhibition zone” value is listed as “did not appear” and the “bacterial growth inhibition (in words)” value is listed as “quite effective to inhibit bacterial growth”. The molecule further registered a concentration for half-maximal inhibition (IC50) against E. coli H6-DXR [3] of 17 nM.

A word on the IC50: it is the concentration needed to halve the response being measured.
